In general, pEC50 refers to the EC50 on a negative log10 scale, so that one unit is a factor of ten. One may read the pIC50 as −log10 of the IC50, conventionally taken in molar units.

Molecules are shown by their SMILES. pEC50, pIC50: −log10 of the molar value. Activity calls are given as the source filed them.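 The calls were made as follows: active = compounds giving half or more protection of infected cells from virus-caused growth loss, again on retest; inactive = the rest.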

The subject of this experiment is CEM cells HIV-1 protection, formazan growth assay. Description: NCI AIDS Antiviral Assay. As to conditions: for pIC50: measured here: growth of uninfected CEM cells. The essentials: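 Protection of CEM cells against HIV-1 measured as cell growth via soluble formazan read-out, with five concentrations tested on both infected and uninfected cells; failure to protect may reflect toxicity.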

Take `O=C(O)c1ccc2nc(-c3ccccn3)c(-c3ccccn3)nc2c1`: the pEC50 was less than 3.70 and the negative logarithm of the IC50 (pIC50) is less than 3.70.
On to `C=CCNC(=O)CN(CC(=O)OC)C1CCCCC1N(CC(=O)OC)CC(=O)OC` (stereo not drawn), for which the pEC50 was less than 3.70 and the pIC50 was less than 3.70.
In the case of `COC(=O)C1(C)CCc2c(OC)ccc(OC)c2C1=O` (stereo not drawn), the pEC50 was 3.92 and the pIC50 is 3.49.
Consider `O=[N+]([O-])C1C=Nc2ccccc2N=C1`, for which the pEC50 was less than 3.70 and the pIC50 was less than 3.70.
Consider `COc1cc(/C=C/C(=O)CC(=O)/C=C/c2ccc(O)cc2)ccc1O`, for which the pEC50 was less than 3.70 and the pIC50 is 4.93.
With `CC(C)(C)OC(=O)N1CCc2c(n(C/C=C/c3ccccc3)[nH]c2=O)C1`, the pEC50 is less than 3.70 and the pIC50 was 4.72.
Take `N#CC(C#N)=Cc1cc(O)c(O)c(O)c1`: the pEC50 is less than 3.70 and the pIC50 was 4.50.
Taken in the same sequence, the figures for `Cc1ccc2c(c1)C(=C(C#N)C#N)CCCS2(=O)=O` were less than 3.70 and less than 3.70.
For `O=c1[nH]c2ncsc2c(=O)n1O`, in that order: less than 3.70 and 5.30.
Take `NC(N)=NS(=O)(=O)c1ccc(NC(=O)c2cccn3c(=O)c4ccccc4nc23)cc1`: the result was inactive.
With `Clc1ccccc1C1SCc2nc3ncccc3n21` (stereo not drawn), the pEC50 was less than 4.04 and the pIC50 is 4.17.
Consider `O=C1CN(Cc2ccccc2)CC(=O)N2Cc3ccccc3CN12`, for which the result was inactive.
Turning to `O=c1c(F)cn2c(=O)n1CCCCCCCn1c(=O)c(F)cn(c1=O)CCCCCCC2`, the pEC50 was less than 3.70 and the pIC50 is 3.81.
Take `CCOC(=O)/C=C\SCCC(=O)O`: the pEC50 was less than 2.91 and the pIC50 is less than 2.91.
Consider `CCOC(=O)[C@@]1(C(C)=O)CC(C)=C(C)C[S@]1=O`, for which the pEC50 was less than 3.70 and the pIC50 is less than 3.70.
Regarding `CCc1c(Cc2ccccc2)n(COCCCO)c(=O)[nH]c1=O`, the pEC50 was 5.15 and the pIC50 was 5.00.
Turning to `CCN(CC)c1ccc(N=Nc2ccc(-c3nc4cccnc4s3)cc2)cc1`, the pEC50 was less than 5.29 and the pIC50 was less than 5.29.
Consider `CC1(C)O[C@@H](CP(c2ccc3ccccc3c2)c2ccc3ccccc3c2)[C@H](CP(c2ccc3ccccc3c2)c2ccc3ccccc3c2)O1`, for which the pEC50 was less than 3.70 and the pIC50 is 3.89.
Consider `CCOC(=O)C(=Cc1ccc(-c2ccccc2)cc1)C(=O)OCC`, for which the pEC50 was less than 4.79 and the pIC50 is 4.98.
In the case of `c1ccc(Nc2nnc(-c3ccccc3Nc3ccccc3-c3nnc(Nc4ccccc4)s3)s2)cc1`, the pEC50 was less than 3.70 and the pIC50 was 3.98.
As for `O=c1n(-c2ccccc2)c(=O)n2n1C1C3C4C5C3C2C5(F)C41` (stereo not drawn), the pEC50 was less than 3.70 and the negative logarithm of the IC50 (pIC50) is less than 3.70.
On to `CN(C)COC(=S)SC(=O)OCCCl`, for which the pEC50 is less than 3.70 and the pIC50 was less than 3.70.
On to `COc1cc2c(cc1OCc1ccccc1)C=CN(C(=O)c1ccccc1)C2C#N` (stereo not drawn), for which the result was inactive.
For `COc1ccc(C(=O)C(CN2CCOCC2)CN2CCOCC2)cc1`, the pEC50 is less than 3.70 and the pIC50 was 5.88.
For `N#Cc1ccc(C2OCC3CC=CCC3CO2)cc1` (stereo not drawn), in that order: less than 4.27 and less than 4.27.
Taken in the same sequence, the figures for `Cc1cc(N(CCC#N)CCC#N)ccc1N=Nc1ccc(Br)cc1` were less than 5.16 and less than 5.16.
Taken in the same sequence, the figures for `CCOC(=O)/C(=C\c1ccc([N+](=O)[O-])cc1)P(=O)(OCC)OCC` were less than 4.69 and 4.99.
Consider `CN1CCC(O)(OC(=O)C(c2ccccc2)C2(O)CCCC2)CC1` (stereo not drawn), for which the pEC50 was less than 3.70 and the pIC50 was less than 3.70.
As for `CN(C)/N=C(/SS/C(=N/N(C)C)C(F)(F)F)C(F)(F)F`, the outcome was inactive.
Regarding `O=c1cccc2n1CC1CNCC2C1` (stereo not drawn), the pEC50 is less than 3.70 and the pIC50 was less than 3.70.
For the molecule `Cc1ccc(S(=O)(=O)N2CCN(CCO)CCN(S(=O)(=O)c3ccc(C)cc3)CCN(CCO)CC2)cc1`, the pEC50 is less than 3.70 and the pIC50 was 4.46.
For `COc1ccc(C2C3COc4ccccc4C3=NN2c2ccccc2)cc1` (stereo not drawn), in that order: less than 3.70 and less than 3.70.
`CC(C)/C(Cl)=N\OC(=O)Nc1ccc(S(N)(=O)=O)cc1`: the pEC50 was less than 3.70 and the pIC50 is 5.01.
For `COC(=O)/C=C(\C(=O)OC)c1c2c3c(cc(OC)c(OC)c3c3ccccc13)CCN2C`, the outcome was inactive.
Take `COC(=O)CN(CC(=O)NCCNC(=O)OC(C)(C)C)C1CCCCC1N(CC(=O)OC)CC(=O)OC` (stereo not drawn): the pEC50 was less than 3.70 and the pIC50 is less than 3.70.
`CCCCCCCCNC(=O)C1=C(C)NC(C)=C(C(=O)NCCCCCCCC)C1`: the pEC50 was less than 3.70 and the pIC50 is 4.01.
Taken in the same sequence, the figures for `CSc1nc2[nH]c(=O)n(O)c(=O)c2n1Cc1ccccc1` were less than 3.70 and 5.42.
For the molecule `Cc1cc2c(C(C)C)c(O)c(O)c(C=Nc3ccc(N=Nc4ccccc4)cc3)c2c(O)c1-c1c(C)cc2c(C(C)C)c(O)c(O)c(C=Nc3ccc(N=Nc4ccccc4)cc3)c2c1O`, the outcome was inactive.
As for `CN1CN(c2ccccc2)C2(CCN(CCCSc3ccccc3NC(=O)/C=C/c3ccccc3)CC2)C1=O`, the pEC50 is less than 3.70 and the pIC50 was 5.48.
With `COC(=O)[C@]1(C)CC[C@]2(C)CC[C@]3(C)C4CC[C@@]5(COC(C)=O)C(CCC(=O)[C@@H]5C)[C@]4(C)CCC3(C)[C@@H]2C1` (stereo partly drawn), the pEC50 is less than 4.47 and the pIC50 is 4.80.
Taken in the same sequence, the figures for `CCC1(N=[N+]=[N-])C(=O)c2ccccc2N(c2ccccc2)C1=O` (stereo not drawn) were less than 3.70 and less than 3.70.
On to `NC1=C(c2ccccc2)C(=O)c2ccccc21`, for which the pEC50 was less than 4.21 and the pIC50 is less than 4.21.
Turning to `Cc1c(C(=O)Nc2ccc(Cl)cc2)nc(N)nc1-c1cccc(Cl)c1`, the pEC50 is less than 3.76 and the pIC50 is less than 3.76.
Take `Cc1cc2cccc(Cl)c2nc1C(=O)c1ccccc1`: the pEC50 was less than 5.18 and the pIC50 was less than 5.18.
Consider `COc1cc(/C=C/C(=O)CC(=O)/C=C/c2ccc(O)c(O)c2)ccc1O`, for which the pEC50 is less than 3.70 and the pIC50 is 5.17.
Taken in the same sequence, the figures for `Cc1[nH]c(=O)c2oc3cc4ccccc4cc3c2c1C(=O)O` were less than 3.70 and less than 3.70.
Taken in the same sequence, the figures for `COC(=O)/C=C/CC(=O)NS(C)(=O)=O` were less than 3.70 and less than 3.70.
For the molecule `c1ccc2c(c1)n1c(N3CCOCC3)[n+]3ccccc3c1c1c3cccc[n+]3c(N3CCOCC3)n21`, the pEC50 is 3.91 and the pIC50 was 3.84.
For `Cn1c(=Nc2ccc(Cl)cc2)sc2ccccc21`, in that order: less than 3.70 and 4.49.
For the molecule `CCC(C)C(NC(=O)c1ccccc1SC(=O)OCCCC[n+]1ccccc1)C(N)=O` (stereo not drawn), the outcome was inactive.
In the case of `CCCCCCCCCCCCCCCC(=O)ON1C(=S)NC(C)(c2ccccc2)C1=S` (stereo not drawn), the pEC50 was less than 3.70 and the pIC50 was 4.11.
In the case of `C=C1[C@H](OC(=O)C(C)C)[C@@H](OC(C)=O)[C@@H](OC(C)=O)C(C)(C)[C@@H]2O[C@H]2[C@@H](C)C(=O)[C@@]2(OC(C)=O)C[C@@](C)(OC(C)=O)[C@H](OC(C)=O)[C@@H]2[C@H]1OC(C)=O`, the pEC50 was less than 3.70 and the pIC50 was less than 3.70.
For `Cc1ccc(Cc2nn(C)c(=O)n2-n2cccc2)cc1`, the pEC50 is less than 3.70 and the pIC50 was 3.99.
For `Cc1csc(-n2nc(C)cc2C)n1`, the pEC50 is less than 3.70 and the pIC50 is less than 3.70.
On to `CCOP(=O)(OCC)C(Cc1cn(S(=O)(=O)c2ccc(C)cc2)cn1)C(=O)O` (stereo not drawn), for which the pEC50 was less than 3.70 and the pIC50 was less than 3.70.
`NC(CCCCNCc1ccccc1)C(=O)O` (stereo not drawn): the pEC50 was less than 2.98 and the pIC50 is less than 2.98.
With `O=c1c2cc(Br)ccc2nc(-c2ccccc2Cl)n1NCC1(O)OCC(O)C(O)C1O` (stereo not drawn), the outcome was inactive.
Consider `O=S1(=O)c2ccccc2-c2nccc3ccnc1c23`, for which the result was inactive.
Consider `COc1ccccc1N1C(=O)CSC1c1c[nH]c2ccccc12` (stereo not drawn), for which the pEC50 was less than 3.54 and the negative logarithm of the IC50 (pIC50) was 3.73.
Taken in the same sequence, the figures for `CC(O)CNC(=O)C(C)Oc1ccc(OCC2CCCCC2)cc1` (stereo not drawn) were less than 3.55 and 4.60.
For `O=C(O)c1c(F)c(F)c(S)c(F)c1F`, the pEC50 was 4.75 and the pIC50 is less than 3.70.
For `C=C[C@@](C)(/C=C/c1ccc(O)cc1)CCC=C(C)C`, in that order: less than 3.70 and 4.60.
For `CC1(C)C2CCC1(C)C(O)(c1ccccc1)C2=O` (stereo not drawn), in that order: less than 4.04 and less than 4.04.
For the molecule `NC(=S)N/N=C\NN/C=N/NC(N)=S`, the pEC50 is less than 3.70 and the pIC50 was 3.99.
Turning to `CC1(c2cccc(C3CCC4(C=CC3=O)OCCO4)c2)OCCO1` (stereo not drawn), the pEC50 was less than 3.70 and the pIC50 is 5.72.
Taken in the same sequence, the figures for `COC1/C=C\OC2(C)Oc3c(C)c(O)c4c(O)c(c(/C=N\OC(C(=O)O)C(C)C)c(O)c4c3C2=O)NC(=O)/C(C)=C\C=C/C(C)C(O)C(C)C(O)C(C)C(OC(C)=O)C1C` (stereo not drawn) were less than 4.00 and 4.39.
In the case of `ClC(c1ccccc1)(c1ccccc1)c1cccc(-c2cccc(C(Cl)(c3ccccc3)c3ccccc3)c2)c1`, the outcome was inactive.
On the same count and under the same terms, next, `CN(C)CCN1N=Nc2cccc3cccc1c23`: “inactive”.
Take `O=S(=O)(O)SCCNCCCCC1CCCCC1`: the pEC50 is less than 3.70 and the pIC50 is 4.99.
Take `O=C1/C(=C/c2ccc(OC(=O)c3ccc(Cl)cc3)cc2)CCC/C1=C\c1ccc(OC(=O)c2ccc(Cl)cc2)cc1`: the pEC50 was less than 4.00 and the pIC50 is less than 4.00.
For `Cc1ccc(C2=C(c3ccc(C)cc3)C(c3ccc(C)cc3)=C(c3ccc(C)cc3)C2=O)cc1`, the pEC50 was less than 4.79 and the pIC50 was less than 4.79.
With `CCOC(=O)C1Cc2[nH]c3ccccc3c2C(C)C1C` (stereo not drawn), the pEC50 was less than 4.02 and the negative logarithm of the IC50 (pIC50) is 4.31.

(Values after PubChem BioAssay AID179 (DTP/NCI, 2004).)
